Where two headings read alike, the source gives them in different places. One block for each compound: values may come before it.
Tests used:
human recombinant PLK1 = human recombinant PLK1 (Homo sapiens, UniProt P53350); experiment: PLK1 inhibitory activity assay (ADP-Glo Kinase Assay); format: biochemical; details: for %inh: PLK1 Lab Report; for IC50: mean of three independent experiments, read-out: PLK1 IC50 ± SD
Experimental: The BRD4 and PLK1 inhibitory assays were carried out in vitro in accordance with the manufacturer’s instructions; BRD4 was assessed using AlphaLISA Bromodomain Assay Protocol, and PLK1 kinase was tested using the ADP-Glo™ Kinase Assay Protocol, as detailed in the Supplementary file. […]
1.2.2. PLK1 inhibitory activity assay
The kinase reaction was performed with active human recombinant PLK1 and combined with the substrate dephosphorylated casein (positive control) using 1 X reaction buffer (40 mM Tris-HCl pH 7.4, 20 mM MgCl2, 0.1 mg/mL BSA, 1 mM DTT) and 20 μM ATP. The reaction was incubated at30°C for 45 minutes. The amount of ATP transferred was calculated using […] reagent from Promega according to the manufacturer’s instruction.
A plate-reading luminometer isused to measure the luminescence. […]

[1] = tested on: MDA-MB-231 breast cancer cells; experiment: MTT cytotoxicity assay, MDA-MB-231; format: cell-based; details: for IC50 / viability at 0.312 µM / viability at 0.625 µM / viability at 1.25 µM / viability at 2.5 µM / viability at 5 µM / viability at 10 µM: Homo sapiens; for IC50 / viability at 0.312 µM / viability at 0.625 µM / viability at 1.25 µM / viability at 2.5 µM / viability at 5 µM / viability at 10 µM / Toxicity %: MDA-MB-231
How it was run: (§1)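 Cells seeded at 1 X 10^5 cells/mL and grown 24 h at 37°C to a monolayer, then exposed to two-fold compound dilutions in RPMI with 2% serum, six doses. MTT added for 4 h at 37°C, formazan dissolved in DMSO, OD read at 560 nm minus 620 nm background. IC50 from dose-response.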

[2] = MTT cytotoxicity assay, normal Vero cells; format: cell-based; details: African green monkey, normal Vero cells, MTT; for IC50: mean of three independent experiments ± SD, read-out: In Vitro Cytotoxicity against Normal Cells IC50 Value, Vero Cells; for viability at 0.312 µM / viability at 0.625 µM / viability at 1.25 µM / viability at 2.5 µM / viability at 5 µM / viability at 10 µM: Vero
Experimental: (§2) Using a six-dose MTT colorimetric assay [44, 66], all new synthetic compounds were tested for cytotoxicity against three cancer cell lines: MDA-MB-231 breast cancer cells, HT-29 colorectal adenocarcinoma cells, and U-937 renal cancer cells. […] These cell lines were supplied by ATCC (American Type Culture Collection) via the Holding company for biological products and vaccines (VACSERA, Cairo, Egypt). The reference control used was Methotrexate.
1.1.In-vitro cytotoxicity screening
(§3) Using a six-dose MTT colorimetric assay [44, 66], allnew synthetic compounds were tested for cytotoxicity against three cancer cell lines: MDA-MB-231 breast cancer cells,HT-29 colorectal adenocarcinoma cells, and U-937 renal
(§4) The cell lines were supplied by ATCC (American Type Culture Collection). The reference control used was Methotrexate. The cytotoxic activities of the examined compounds were quantified by inoculating a 96-well tissue culture plate with 1 X 10^5 cells / mL (100 uL/well) and incubating it at 37°C for 24 hours to develop a complete monolayer sheet. After forming a confluent sheet of cells, the growth medium was decanted from 96-well microtiter plates, and the cell monolayer was washed twice with wash media. Two-fold dilutions of tested samples were made in RPMI medium with 2% serum (maintenance medium), and 0.1 mL of each dilution was tested in different wells, with three wells serving as controls and receiving only maintenance medium. Following that, the plate was incubated at 37°C and examined. Cells were investigated for any physical signs of toxicity, such as partial or complete monolayer loss, rounding, shrinkage, or cell granulation. MTT solution was prepared (5mg/ml in PBS) (BIO BASIC CANADA INC), and 20 uL MTT solution was added to each well. After 5 minutes on a shaking table at150 rpm to thoroughly mix the MTT into the media, it was incubated (37C, 5% CO2) for 4 hours to allow the MTT to be metabolized. Formazan (MTT metabolic product) was resuspended in 200 uL DMSO and shaken at 150 rpm for 5 minutes to thoroughly mix the formazan into the solvent. The optical density was measured at 560 nm, and the background was subtracted at 620 nm. Finally, the IC50 of the test compound in comparison to the reference was calculated using the GraphPad Prism software.

normal Vero cells = experiment: MTT cytotoxicity assay, normal Vero cells; format: cell-based; details: Vero; for Toxicity %: MTT
Experimental: as §2
1.1.In-vitro cytotoxicity screening
as §3, §4

BRD4 (BD2) = target: T1, BRD4 (BD2) (Homo sapiens, UniProt O60885); experiment: BRD4 inhibitory activity assay (AlphaLISA Bromodomain Assay); format: binding; details: for %inh: BRD4 Lab Report; for IC50: mean of three independent experiments, read-out: BRD4 IC50 ± SD;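 for all read-outs here: in vitro inhibition of recombinant BRD4 BD2 bromodomain binding to a BET bromodomain ligand, read by AlphaLISA proximity signal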
T1 construct: BRD4 (BD2) should be thawed on ice; purchased
Experimental: The BRD4 and PLK1 inhibitory assays were carried out in vitro in accordance with the manufacturer’s instructions; BRD4 was assessed using AlphaLISA Bromodomain Assay Protocol [67], and PLK1 kinase was tested using the ADP-Glo™ Kinase Assay Protocol [68], as detailed in the Supplementary file.
The BRD4 and PLK1 inhibitory assays were carried out in vitro in accordance with the manufacturer's instructions; BRD4 was assessed using AlphaLISA Bromodomain Assay Protocol [67], and PLK1 kinase was tested using the ADP-Glo™ Kinase Assay Protocol [68],
The master mixture was prepared as follows: N wells × (2.5 µL 3x BRD Homogeneous Assay Buffer 1 + 1 µL BET Bromodomain Ligand + 1.5 µL H2O). BRD4 (BD2) should be thawed on ice. Simply, the protein-containing tube was spined to recover the full content of the tube after the firstthaw. Both proteins should be aliquoted into single-use aliquots. Immediately, any remaining undiluted protein should be stored in aliquots at -80°C. BRD4 (BD2) was diluted in 1x BRD Homogeneous Assay Buffer 1 at 4 ng/µL. The diluted proteins were kept on ice until they were used. 5 µl of the master mixture is added to each well designated for the “Positive Control”, “Test Inhibitor”, and “Blank”. For the “Substrate Control”, 2.5 µL 3x BRD Homogeneous Assay Buffer 1 + 1 µL Non-acetylated Ligand 1 + 1.5 µL H2O is added. Each “Test Inhibitor” well received 2.5 µL of inhibitor solution, while the “Positive
Control”, “Substrate Control”, and “Blank” wells received 2.5 µL of the same solution without inhibitor (inhibitor buffer). Then, the “Blank” well is filled with 2.5 µL of 1x BRD Homogeneous Assay Buffer 1. After that, GSH
10 µL per well is added, the plate isshaken, and itis incubated at room temperature for 30 minutes. Streptavidin-
10 µL is added per well and incubated at room temperature for further 15 – 30 minutes [67]. The Alpha counts were read using the EnVision® multimode plate reader with the standard Alpha detection settings.

[3] = MTT cytotoxicity assay, U-937; format: cell-based; details: Homo sapiens, U-937, U937, MTT;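 note: Six-dose MTT colorimetric assay on cell monolayers, formazan absorbance read at 560 nm with 620 nm background removed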
Experimental: (§5) All newly synthetic compounds were tested for cytotoxicity using a six-dose MTT colorimetric assay on three cancer cell lines; namely, breast cancer cells (MDA-MB-231), colorectal adenocarcinoma cells (HT-29) and renal cancer cells (U-937).
as §2, §3, §4

U-937 renal cancer cells = experiment: MTT cytotoxicity assay, U-937; format: cell-based; details: for IC50: Homo sapiens, U-937;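 for all read-outs here: Six-dose MTT colorimetric assay on cell monolayers, formazan absorbance read at 560 nm with 620 nm background removed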
Experimental: as §5, §2, §3, §4

[4] = tested on: HT-29 colorectal adenocarcinoma cells; experiment: MTT cytotoxicity assay, HT-29; format: cell-based; details: for viability at 0.312 µM / viability at 0.625 µM / viability at 1.25 µM / viability at 2.5 µM / viability at 5 µM / viability at 10 µM / IC50: Homo sapiens, HT-29
How it was run: as §1

[5] = MTT, mean of three independent experiments ± SD, read-out: IC50 Value MDA-MB-231
[6] = MTT, mean of three independent experiments ± SD, read-out: IC50 Value U-937
[7] = SI = IC50 normal cells (Vero)/IC50 cancer cells
[8] = MTT, mean of three independent experiments ± SD, read-out: IC50 Value HT-29

Sequence of human recombinant PLK1 (P53350 whole entry): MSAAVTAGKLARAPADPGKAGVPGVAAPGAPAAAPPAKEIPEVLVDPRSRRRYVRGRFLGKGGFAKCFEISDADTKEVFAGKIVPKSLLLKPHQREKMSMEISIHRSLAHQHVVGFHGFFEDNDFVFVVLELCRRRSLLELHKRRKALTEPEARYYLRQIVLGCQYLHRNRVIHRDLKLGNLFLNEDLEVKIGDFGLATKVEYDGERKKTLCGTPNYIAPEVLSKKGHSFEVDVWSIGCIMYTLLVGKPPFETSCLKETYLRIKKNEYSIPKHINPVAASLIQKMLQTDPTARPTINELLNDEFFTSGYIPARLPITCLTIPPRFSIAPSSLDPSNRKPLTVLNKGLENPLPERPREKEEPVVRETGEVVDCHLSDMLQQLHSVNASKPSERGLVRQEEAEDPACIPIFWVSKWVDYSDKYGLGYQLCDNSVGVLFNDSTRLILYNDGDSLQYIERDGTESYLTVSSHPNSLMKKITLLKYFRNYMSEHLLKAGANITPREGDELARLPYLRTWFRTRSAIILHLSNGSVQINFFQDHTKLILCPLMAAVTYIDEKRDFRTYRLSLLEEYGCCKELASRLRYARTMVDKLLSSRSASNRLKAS

%inh (human recombinant PLK1; conc 0.01 (unit not given)): 25% | %inh (human recombinant PLK1; conc 0.1 (unit not given)): 42% | %inh (human recombinant PLK1; conc 1 (unit not given)): 65% | %inh (human recombinant PLK1; conc 10 (unit not given)): 87% | %inh (human recombinant PLK1; conc 100 (unit not given)): 94% | IC50 (human recombinant PLK1): 218 ± 10 nM | %inh (BRD4 (BD2); conc 0.01 (unit not given)): 34% | %inh (BRD4 (BD2); conc 0.1 (unit not given)): 49% | %inh (BRD4 (BD2); conc 1 (unit not given)): 73% | %inh (BRD4 (BD2); conc 10 (unit not given)): 88% | %inh (BRD4 (BD2); conc 100 (unit not given)): 95% | IC50 (BRD4 (BD2)): 141 ± 6 nM
SMILES: CCn1c(N)c(/N=C(/CBr)c2ccc(OC)cc2)c(=O)[nH]c1=O [Compound 6a, (E)-6-Amino-5-((2-bromo-1-(4-methoxyphenyl)ethylidene)amino)-1-ethylpyrimidine-2,4(1H,3H)-dione]
IC50 [1, 5]: 630 ± 10 nM | viability at 0.312 µM ([1]; MTT, 0.312 uM): 100% | viability at 0.625 µM ([1]; MTT, 0.625 uM): 98.9% | viability at 1.25 µM ([1]; MTT, 1.25 uM): 27.1% | viability at 2.5 µM ([1]; MTT, 2.5 uM): 5.98% | viability at 5 µM ([1]; MTT, 5 uM): 3.37% | viability at 10 µM ([1]; MTT, 10 uM): 4.03% | IC50 ([1]; supplement viability lab report, read-out: IC50 ± SD): 1000 nM | Toxicity % ([1]; MTT, 0.312 uM): 0.04433% | Toxicity % ([1]; MTT, 0.625 uM): 1.064% | Toxicity % ([1]; MTT, 1.25 uM): 72.92% | Toxicity % ([1]; MTT, 2.5 uM): 94.02% | Toxicity % ([1]; MTT, 5 uM): 96.63% | Toxicity % ([1]; MTT, 10 uM): 95.97% | Selectivity Indices (SI) MDA-MB-231 ([1]; SI = IC50 normal cells (Vero)/IC50 cancer cells, ≥5 highly, >2 moderately, <2 non-selective): 3.27 | IC50 [2]: 2060 ± 30 nM | viability at 0.312 µM [2]: 99.8% | viability at 0.625 µM [2]: 99.2% | viability at 1.25 µM [2]: 83.6% | viability at 2.5 µM [2]: 26.8% | viability at 5 µM [2]: 11.6% | viability at 10 µM [2]: 4.59% | IC50 (normal Vero cells; Chlorocebus sabaeus, supplement viability lab report): 1950 nM | Toxicity % (normal Vero cells; 0.312 uM): 0.1996% | Toxicity % (normal Vero cells; 0.625 uM): 0.7585% | Toxicity % (normal Vero cells; 1.25 uM): 16.37% | Toxicity % (normal Vero cells; 2.5 uM): 73.21% | Toxicity % (normal Vero cells; 5 uM): 88.38% | Toxicity % (normal Vero cells; 10 uM): 95.41% | viability at 0.312 µM [3]: 99.1% | viability at 0.625 µM [3]: 96.1% | viability at 1.25 µM [3]: 40.3% | viability at 2.5 µM [3]: 14.5% | viability at 5 µM [3]: 13.2% | viability at 10 µM [3]: 9.91% | IC50 (U-937 renal cancer cells; [6]): 970 ± 10 nM | IC50 (U-937 renal cancer cells; supplement viability lab report, U937, read-out: IC50 ± SD): 1120 nM | Selectivity Indices (SI) U-937 (U-937 renal cancer cells; [7]): 2.12 | Toxicity % (U-937 renal cancer cells; U937, MTT, 0.312 uM): 0.8715% | Toxicity % (U-937 renal cancer cells; U937, MTT, 0.625 uM): 3.867% | Toxicity % (U-937 renal cancer cells; U937, MTT, 1.25 uM): 59.69% | Toxicity % (U-937 renal cancer cells; U937, MTT, 2.5 uM): 85.46% | Toxicity % (U-937 renal cancer cells; U937, MTT, 5 uM): 86.76% | Toxicity % (U-937 renal cancer cells; U937, MTT, 10 uM): 90.09% | Toxicity % ([4]; HT29, MTT, 0.312 uM): 0.3876% | Toxicity % ([4]; HT29, MTT, 0.625 uM): 0.04307% | Toxicity % ([4]; HT29, MTT, 1.25 uM): 26.57% | Toxicity % ([4]; HT29, MTT, 2.5 uM): 89.88% | Toxicity % ([4]; HT29, MTT, 5 uM): 95.95% | Toxicity % ([4]; HT29, MTT, 10 uM): 95.74% | viability at 0.312 µM ([4]; HT29, MTT, 0.312 uM): 99.6% | viability at 0.625 µM ([4]; HT29, MTT, 0.625 uM): 100% | viability at 1.25 µM ([4]; HT29, MTT, 1.25 uM): 73.4% | viability at 2.5 µM ([4]; HT29, MTT, 2.5 uM): 10.1% | viability at 5 µM ([4]; HT29, MTT, 5 uM): 4.05% | viability at 10 µM ([4]; HT29, MTT, 10 uM): 4.26% | IC50 [4, 8]: 750 ± 10 nM | IC50 ([4]; supplement viability lab report, HT29, read-out: IC50 ± SD): 1690 nM | Selectivity Indices (SI) HT-29 [4, 7]: 2.75

%inh (human recombinant PLK1; conc 0.01 (unit not given)): 34% | %inh (human recombinant PLK1; conc 0.1 (unit not given)): 46% | %inh (human recombinant PLK1; conc 1 (unit not given)): 70% | %inh (human recombinant PLK1; conc 10 (unit not given)): 88% | %inh (human recombinant PLK1; conc 100 (unit not given)): 95% | IC50 (human recombinant PLK1): 94 ± 4 nM | %inh (BRD4 (BD2); conc 0.01 (unit not given)): 41% | %inh (BRD4 (BD2); conc 0.1 (unit not given)): 58% | %inh (BRD4 (BD2); conc 1 (unit not given)): 75% | %inh (BRD4 (BD2); conc 10 (unit not given)): 91% | %inh (BRD4 (BD2); conc 100 (unit not given)): 95% | IC50 (BRD4 (BD2)): 29 ± 1 nM
SMILES: Nc1c(/N=C(/CBr)c2ccccc2)c(=O)[nH]c(=O)n1Cc1ccccc1 [Compound 4, (E)-6-Amino-1-benzyl-5-((2-bromo-1-phenylethylidene)amino)pyrimidine-2,4(1H,3H)-dione]
IC50 [1, 5]: 780 ± 10 nM | viability at 0.312 µM ([1]; MTT, 0.312 uM): 99.7% | viability at 0.625 µM ([1]; MTT, 0.625 uM): 57.8% | viability at 1.25 µM ([1]; MTT, 1.25 uM): 7.14% | viability at 2.5 µM ([1]; MTT, 2.5 uM): 8.02% | viability at 5 µM ([1]; MTT, 5 uM): 5.1% | viability at 10 µM ([1]; MTT, 10 uM): 4.7% | Toxicity % ([1]; MTT, 0.312 uM): 0.3103% | Toxicity % ([1]; MTT, 0.625 uM): 42.24% | Toxicity % ([1]; MTT, 1.25 uM): 92.86% | Toxicity % ([1]; MTT, 2.5 uM): 91.98% | Toxicity % ([1]; MTT, 5 uM): 94.9% | Toxicity % ([1]; MTT, 10 uM): 95.3% | IC50 [2]: 1730 ± 30 nM | viability at 0.312 µM [2]: 100% | viability at 0.625 µM [2]: 92.9% | viability at 1.25 µM [2]: 63.6% | viability at 2.5 µM [2]: 23.6% | viability at 5 µM [2]: 6.63% | viability at 10 µM [2]: 2.28% | Toxicity % (normal Vero cells; 0.312 uM): 0% | Toxicity % (normal Vero cells; 0.625 uM): 7.106% | Toxicity % (normal Vero cells; 1.25 uM): 36.41% | Toxicity % (normal Vero cells; 2.5 uM): 76.37% | Toxicity % (normal Vero cells; 5 uM): 93.37% | Toxicity % (normal Vero cells; 10 uM): 97.72% | viability at 0.312 µM [3]: 97.3% | viability at 0.625 µM [3]: 83% | viability at 1.25 µM [3]: 24.8% | viability at 2.5 µM [3]: 8.01% | viability at 5 µM [3]: 7.46% | viability at 10 µM [3]: 7.9% | IC50 (U-937 renal cancer cells; [6]): 950 nM | Toxicity % (U-937 renal cancer cells; U937, MTT, 0.312 uM): 2.669% | Toxicity % (U-937 renal cancer cells; U937, MTT, 0.625 uM): 16.99% | Toxicity % (U-937 renal cancer cells; U937, MTT, 1.25 uM): 75.22% | Toxicity % (U-937 renal cancer cells; U937, MTT, 2.5 uM): 91.99% | Toxicity % (U-937 renal cancer cells; U937, MTT, 5 uM): 92.54% | Toxicity % (U-937 renal cancer cells; U937, MTT, 10 uM): 92.1% | Toxicity % ([4]; HT29, MTT, 0.312 uM): 0.1292% | Toxicity % ([4]; HT29, MTT, 0.625 uM): 48.06% | Toxicity % ([4]; HT29, MTT, 1.25 uM): 92.12% | Toxicity % ([4]; HT29, MTT, 2.5 uM): 92.46% | Toxicity % ([4]; HT29, MTT, 5 uM): 92.76% | Toxicity % ([4]; HT29, MTT, 10 uM): 93.84% | viability at 0.312 µM ([4]; HT29, MTT, 0.312 uM): 99.9% | viability at 0.625 µM ([4]; HT29, MTT, 0.625 uM): 51.9% | viability at 1.25 µM ([4]; HT29, MTT, 1.25 uM): 7.88% | viability at 2.5 µM ([4]; HT29, MTT, 2.5 uM): 7.54% | viability at 5 µM ([4]; HT29, MTT, 5 uM): 7.24% | viability at 10 µM ([4]; HT29, MTT, 10 uM): 6.16% | IC50 [4, 8]: 760 nM
